Source: patent US20070167411A1, “Compositions for treating angina” (Medicure International Inc., priority 2003, published 2007)

What was measured:
[1] = tested on: isolated non-ischemic working rat heart; test: Glucose oxidation rates in isolated working rat heart perfusion ([14C] glucose, 14CO2 production); conditions: 60 minutes aerobic perfusion, compound added about 5 minutes into aerobic period, saline control 1580±183
Experimental: The goal was to determine if […] altered glucose oxidation rates or cardiac function in the isolated non-ischemic working rat heart model. This was achieved by subjecting rat hearts to 60 minutes of aerobic perfusion. […] was added about 5 minutes into the aerobic period and the effects of […] on glucose metabolism was determined during the aerobic period. […] Rat hearts were cannulated for isolated working heart perfusions as described previously (Lopaschuk et al., J Pharmacol Exp Ther. 1993 Jan; 264(1):135-44). In brief, male Sprague-Dawley rats (0.3-0.35 kg) were anesthetized with pentobarbital sodium (60 mg/kg i.p.). The hearts were quickly excised, the aorta was cannulated, and a retrograde perfusion at 37° C. was initiated at a hydrostatic pressure of 60 mm Hg. Hearts were trimmed of excess tissue, and the pulmonary artery and the opening to the left atrium were then cannulated. […] Spontaneously beating hearts were used in all perfusions, heart rate and aortic pressure were measured with a Biopac Systems Inc. blood pressure transducer connected to the aortic outflow line. Cardiac output and aortic flow were measured with Transonic […] ultrasonic flow probes in the preload and afterload lines, respectively. Coronary flow was calculated as the difference between cardiac output and aortic flow. […]

[2] = water, alcohol, and ether; cited from earlier work

Structure (SMILES) | glucose oxidation rates [1] | solubility [2]
O=C(O)C(Cl)Cl [DCA, dichloroacetic acid, reference compound] | 2422±140 | –
Cc1ncc(COP(=O)(O)O)c(C=O)c1O [Example P5P, 3-hydroxy-2-methyl-5-[(phosphonooxy)methyl]-4-pyridine-carboxaldehyde] | 2253±230 | essentially insoluble in water, alcohol, and ether
